Results taken from the supplement of paper PMC10307832.

How the values were obtained:
Assay in all cases: relative viability (nuclei count vs DMSO), 5 days (fraction); higher = more cells survive
[1] = test system: HCC-15
Outline: (§1)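 The day after seeding in 1536-well plates, lung cancer cell lines were treated by pin tool with a single drug, or with a fixed anchor-drug dose together with five library-drug doses (not always all listed) in √10 steps. After 5 days, a combined fix-and-stain solution (final 0.05% Triton X-100, 1% formaldehyde, 1 ug/ml Hoechst) was added. Nuclei counted on 4× images gave relative viability as treated counts over vehicle counts, reported as the median of duplicate plates.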

[2] = test system: HCC-366
Outline: as §1

[3] = test system: NCI-H3122
Outline: as §1

[4] = test system: RERF-LC-KJ
Outline: as §1

[5] = test system: SK-LU-1
Outline: as §1

[6] = test system: HCC-78
Outline: as §1

[7] = test system: NCI-H1755
Outline: as §1

[8] = test system: NCI-H1993
Outline: as §1

[9] = test system: HCC-827
Outline: as §1

[10] = test system: COR-L23
Outline: as §1

[11] = test system: 201T
Outline: as §1

[12] = test system: NCI-H1975
Outline: as §1

[13] = test system: LXF-289
Outline: as §1

[14] = test system: COR-L 105
Outline: as §1

[15] = test system: NCI-H1944
Outline: as §1

[16] = test system: NCI-H596
Outline: as §1

[17] = test system: LC-2-ad
Outline: as §1

[18] = test system: LU99A
Outline: as §1

[19] = test system: NCI-H1734
Outline: as §1

[20] = test system: NCI-H1650
Outline: as §1

[21] = test system: HARA
Outline: as §1

[22] = test system: EKVX
Outline: as §1

[23] = test system: BEN
Outline: as §1

In the case of `O=c1[nH]c2ccccc2n1C1CCN(CCCC(c2ccc(F)cc2)c2ccc(F)cc2)CC1` [Pimozide] + C[C@@H](Oc1cc(-c2cnn(C3CCNCC3)c2)cnc1N)c1c(Cl)ccc(F)c1Cl [Crizotinib] (partner 1 µM), the relative viability ([1]; first compound 0.08 µM) is reported as 0.835, the relative viability ([1]; first compound 0.253 µM) is reported as 0.771 and the relative viability ([1]; first compound 0.8 µM) is reported as 0.724. It also gave a relative viability ([1]; first compound 2.53 µM) of 0.761, a relative viability ([1]; first compound 8 µM) of 0.797 and a relative viability ([2]; first compound 0.08 µM) of 0.574. The relative viability ([2]; first compound 0.253 µM) was 0.455, the relative viability ([2]; first compound 0.8 µM) was 0.448 and the relative viability ([2]; first compound 2.53 µM) was 0.503. It also gave a relative viability ([2]; first compound 8 µM) of 0.525, a relative viability ([3]; first compound 0.08 µM) of 0.27 and a relative viability ([3]; first compound 0.253 µM) of 0.28. The relative viability ([3]; first compound 0.8 µM) was 0.275, the relative viability ([3]; first compound 2.53 µM) was 0.301 and the relative viability ([3]; first compound 8 µM) was 0.279. The relative viability ([4]; first compound 0.08 µM) was 0.809, the relative viability ([4]; first compound 0.253 µM) was 0.815 and the relative viability ([4]; first compound 0.8 µM) was 0.764. The relative viability ([4]; first compound 2.53 µM) was 0.581, the relative viability ([4]; first compound 8 µM) was 0.705 and the relative viability ([5]; first compound 0.08 µM) was 0.895. It also gave a relative viability ([5]; first compound 0.253 µM) of 0.792, a relative viability ([5]; first compound 0.8 µM) of 0.912 and a relative viability ([5]; first compound 2.53 µM) of 0.786. It also gave a relative viability ([5]; first compound 8 µM) of 0.769, a relative viability ([6]; first compound 0.08 µM) of 0.263 and a relative viability ([6]; first compound 0.253 µM) of 0.339. The relative viability ([6]; first compound 0.8 µM) was 0.333, the relative viability ([6]; first compound 2.53 µM) was 0.354 and the relative viability ([6]; first compound 8 µM) was 0.315. The relative viability ([7]; first compound 0.08 µM) was 0.881, the relative viability ([7]; first compound 0.253 µM) was 0.845 and the relative viability ([7]; first compound 0.8 µM) was 0.794. It also gave a relative viability ([7]; first compound 2.53 µM) of 0.792, a relative viability ([7]; first compound 8 µM) of 0.697 and a relative viability ([8]; first compound 0.08 µM) of 0.818. It also gave a relative viability ([8]; first compound 0.253 µM) of 0.816, a relative viability ([8]; first compound 0.8 µM) of 0.816 and a relative viability ([8]; first compound 2.53 µM) of 0.859. The relative viability ([8]; first compound 8 µM) was 0.898, the relative viability ([9]; first compound 0.253 µM) was 0.887 and the relative viability ([9]; first compound 0.8 µM) was 0.826. For the same molecule, the relative viability ([9]; first compound 2.53 µM) was 0.936, the relative viability ([9]; first compound 8 µM) was 0.885 and the relative viability ([10]; first compound 0.08 µM) was 0.656. For the same molecule, the relative viability ([10]; first compound 0.253 µM) was 0.606, the relative viability ([10]; first compound 0.8 µM) was 0.575 and the relative viability ([10]; first compound 2.53 µM) was 0.601. The relative viability ([10]; first compound 8 µM) was 0.575, the relative viability ([11]; first compound 0.08 µM) was 0.995 and the relative viability ([11]; first compound 0.253 µM) was 1. The relative viability ([11]; first compound 0.8 µM) was 1.03, the relative viability ([11]; first compound 2.53 µM) was 1.05 and the relative viability ([11]; first compound 8 µM) was 0.964. It also gave a relative viability ([12]; first compound 0.08 µM) of 0.919, a relative viability ([12]; first compound 0.253 µM) of 1.02 and a relative viability ([12]; first compound 0.8 µM) of 0.83. It also gave a relative viability ([12]; first compound 2.53 µM) of 0.882, a relative viability ([12]; first compound 8 µM) of 0.73 and a relative viability ([13]; first compound 0.08 µM) of 0.791. For the same molecule, the relative viability ([13]; first compound 0.253 µM) was 0.775, the relative viability ([13]; first compound 0.8 µM) was 0.79 and the relative viability ([13]; first compound 2.53 µM) was 0.774. It also gave a relative viability ([13]; first compound 8 µM) of 0.709, a relative viability ([14]; first compound 0.253 µM) of 0.831 and a relative viability ([14]; first compound 0.8 µM) of 0.691. For the same molecule, the relative viability ([14]; first compound 2.53 µM) was 0.645, the relative viability ([14]; first compound 8 µM) was 0.555 and the relative viability ([15]; first compound 0.08 µM) was 0.992. For the same molecule, the relative viability ([15]; first compound 0.253 µM) was 1.03, the relative viability ([15]; first compound 0.8 µM) was 1.05 and the relative viability ([15]; first compound 2.53 µM) was 0.967. For the same molecule, the relative viability ([15]; first compound 8 µM) was 0.939, the relative viability ([16]; first compound 0.08 µM) was 0.943 and the relative viability ([16]; first compound 0.253 µM) was 1.05. The relative viability ([16]; first compound 0.8 µM) was 0.928, the relative viability ([16]; first compound 2.53 µM) was 0.911 and the relative viability ([16]; first compound 8 µM) was 0.831. It also gave a relative viability ([17]; first compound 0.08 µM) of 0.474, a relative viability ([17]; first compound 0.253 µM) of 0.441 and a relative viability ([17]; first compound 0.8 µM) of 0.403. It also gave a relative viability ([17]; first compound 2.53 µM) of 0.466, a relative viability ([17]; first compound 8 µM) of 0.479 and a relative viability ([18]; first compound 0.08 µM) of 0.497. The relative viability ([18]; first compound 0.253 µM) was 0.521, the relative viability ([18]; first compound 0.8 µM) was 0.548 and the relative viability ([18]; first compound 2.53 µM) was 0.612. For the same molecule, the relative viability ([18]; first compound 8 µM) was 0.61, the relative viability ([19]; first compound 0.08 µM) was 0.646 and the relative viability ([19]; first compound 0.253 µM) was 0.633. The relative viability ([19]; first compound 0.8 µM) was 0.716, the relative viability ([19]; first compound 2.53 µM) was 0.609 and the relative viability ([19]; first compound 8 µM) was 0.722. For the same molecule, the relative viability ([20]; first compound 0.08 µM) was 0.923, the relative viability ([20]; first compound 0.253 µM) was 0.946 and the relative viability ([20]; first compound 0.8 µM) was 0.791. The relative viability ([20]; first compound 2.53 µM) was 0.891, the relative viability ([20]; first compound 8 µM) was 0.835 and the relative viability ([21]; first compound 0.08 µM) was 0.991. For the same molecule, the relative viability ([21]; first compound 0.253 µM) was 1.07, the relative viability ([21]; first compound 0.8 µM) was 1.01 and the relative viability ([21]; first compound 2.53 µM) was 0.927. It also gave a relative viability ([21]; first compound 8 µM) of 0.961, a relative viability ([22]; first compound 0.253 µM) of 0.949 and a relative viability ([22]; first compound 0.8 µM) of 0.895. For the same molecule, the relative viability ([22]; first compound 2.53 µM) was 0.865, the relative viability ([22]; first compound 8 µM) was 0.876 and the relative viability ([23]; first compound 0.08 µM) was 1.01. The relative viability ([23]; first compound 0.253 µM) was 0.913, the relative viability ([23]; first compound 0.8 µM) was 0.846 and the relative viability ([23]; first compound 2.53 µM) was 0.697. It also gave a relative viability ([23]; first compound 8 µM) of 0.969.
